# Test results: patent US20240336602A1 (Katholieke Universiteit Leuven, priority 2020, published 2024)
# pIC50: −log10 of the molar value.
# Molecular target: T1, mouse TRPM3a2 (mTRPM3) ion channel (Mus musculus, UniProt J9SQF3)
# T1 construct: expressed in transfected cells; host or cells: flip-in HEK293
# Assay: TRPM3 ion channel driven Ca2+ uptake, Fluo-4 AM assay (PS-stimulated, overexpressing flip-in HEK293 cells)
# Type: cell-based
# Conditions: PS (50 μM) stimulated Ca2+ influx, HEK293, cpds 200-299
# Outline: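 Flip-in HEK293 cells overexpressing mTRPM3α2, loaded with Fluo-4 AM, were added to wells with compound plus 50 μM pregnenolone sulfate in Ca2+-containing Krebs buffer and read immediately (ex 485/em 535 nm). Percent inhibition was scaled between PS-plus-vehicle and positive-control-inhibitor signals.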
# T1 sequence (J9SQF3 1-1709 isoform J9SQF3-12): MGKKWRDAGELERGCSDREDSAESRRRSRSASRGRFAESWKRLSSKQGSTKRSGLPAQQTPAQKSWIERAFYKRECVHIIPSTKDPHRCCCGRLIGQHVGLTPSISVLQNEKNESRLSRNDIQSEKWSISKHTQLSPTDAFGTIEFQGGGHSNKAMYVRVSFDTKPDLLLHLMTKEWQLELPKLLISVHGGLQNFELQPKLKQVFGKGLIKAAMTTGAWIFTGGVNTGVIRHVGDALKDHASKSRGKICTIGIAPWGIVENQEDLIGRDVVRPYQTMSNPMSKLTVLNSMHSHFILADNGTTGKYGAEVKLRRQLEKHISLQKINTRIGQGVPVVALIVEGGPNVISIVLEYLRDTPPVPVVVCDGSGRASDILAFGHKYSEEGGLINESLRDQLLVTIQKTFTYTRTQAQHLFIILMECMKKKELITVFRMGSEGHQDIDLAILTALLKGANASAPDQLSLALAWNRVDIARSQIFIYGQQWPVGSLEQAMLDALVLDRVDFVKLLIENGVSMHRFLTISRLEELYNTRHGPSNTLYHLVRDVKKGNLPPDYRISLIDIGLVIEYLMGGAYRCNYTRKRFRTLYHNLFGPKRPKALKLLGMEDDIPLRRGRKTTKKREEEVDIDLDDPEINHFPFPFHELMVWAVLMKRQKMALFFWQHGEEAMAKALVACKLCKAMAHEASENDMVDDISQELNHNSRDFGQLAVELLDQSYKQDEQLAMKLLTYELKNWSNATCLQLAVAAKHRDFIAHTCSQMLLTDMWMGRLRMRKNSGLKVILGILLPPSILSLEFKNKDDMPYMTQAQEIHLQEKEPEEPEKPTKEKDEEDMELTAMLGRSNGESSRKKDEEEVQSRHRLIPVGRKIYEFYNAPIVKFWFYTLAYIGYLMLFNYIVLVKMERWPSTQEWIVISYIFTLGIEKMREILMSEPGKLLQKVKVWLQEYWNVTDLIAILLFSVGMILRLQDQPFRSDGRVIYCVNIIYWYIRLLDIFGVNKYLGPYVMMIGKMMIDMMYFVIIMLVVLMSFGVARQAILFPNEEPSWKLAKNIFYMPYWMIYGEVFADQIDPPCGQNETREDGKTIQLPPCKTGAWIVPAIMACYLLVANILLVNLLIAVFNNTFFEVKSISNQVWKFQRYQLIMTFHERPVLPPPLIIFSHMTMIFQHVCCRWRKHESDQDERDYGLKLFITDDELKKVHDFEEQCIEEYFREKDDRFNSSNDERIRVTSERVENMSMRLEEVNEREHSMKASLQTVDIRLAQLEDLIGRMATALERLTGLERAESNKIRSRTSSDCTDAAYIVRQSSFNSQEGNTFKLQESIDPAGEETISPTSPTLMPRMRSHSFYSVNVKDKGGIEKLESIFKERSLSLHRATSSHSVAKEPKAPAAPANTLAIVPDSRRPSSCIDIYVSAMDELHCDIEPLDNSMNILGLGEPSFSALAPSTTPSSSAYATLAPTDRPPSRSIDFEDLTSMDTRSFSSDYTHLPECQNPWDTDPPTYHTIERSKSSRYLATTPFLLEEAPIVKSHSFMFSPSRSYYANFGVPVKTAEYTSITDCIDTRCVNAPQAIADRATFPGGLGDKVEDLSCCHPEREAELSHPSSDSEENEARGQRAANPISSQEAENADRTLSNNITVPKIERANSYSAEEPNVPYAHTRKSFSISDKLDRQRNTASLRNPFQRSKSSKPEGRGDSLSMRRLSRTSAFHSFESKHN
row,SMILES,pIC50
1,"Cc1ncsc1COc1ccc2oc(C)c(C(=O)NC3(CO)CNC3)c2c1 [compound 201, N-(3-(hydroxymethyl)azetidin-3-yl)-2-methyl-5-((4-methylthiazol-5-yl)methoxy)benzofuran-3-carboxamide]",4.70 to 6.00
2,"Cc1oc2ccc(OCc3cccnc3C(F)(F)F)cc2c1C(=O)NC1(CO)CNC1 [compound 202, N-(3-(hydroxymethyl)azetidin-3-yl)-2-methyl-5-((2-(trifluoromethyl)pyridin-3-yl)methoxy)benzo-furan-3-carboxamide]",4.70 to 6.00

# Same assay, conditions: PS (50 μM) stimulated Ca2+ influx, HEK293, cpds 300-399
row,SMILES,pIC50
1,"Cc1ncsc1COc1cc(F)c2oc(C)c(C(=O)NC3CCN(CCO)C3=O)c2c1 (single isomer, unassigned) [365 - En 1]",≤ 4.70
2,"Cc1ncsc1COc1ccc2oc(C(F)F)c(C(=O)NC3(CO)COC3)c2c1 [cpd 309, 2-(difluoromethyl)-N-(3-(hydroxymethyl)oxetan-3-yl)-5-((4-methylthiazol-5-yl)methoxy)benzofuran-3-carboxamide]",4.70 to 6.00
3,"Cc1oc2ccc(OCc3c(F)cnn3C)cc2c1C(=O)NC1(CO)CCNC1=O (single isomer, unassigned) [356 - En 1]",≥ 6.00
4,"Cc1oc2ccc(OCc3ccccn3)cc2c1C(=O)NC1COCC1O (single isomer, unassigned) [387 - En 1]",≥ 6.00
5,"Cc1ncsc1COc1ccc2oc(C)c(C(=O)NC3CCN(CCO)C3=O)c2c1F (single isomer, unassigned) [326 - En 2]",4.70 to 6.00

# Same assay, conditions: PS (50 μM) stimulated, cpd 001-199
row,SMILES,pIC50
1,"Cc1oc2ccc(OCC3CCOCC3)cc2c1C(=O)O [cpd 015, 2-methyl-5-((tetrahydro-2H-pyran-4-yl)methoxy)benzofuran-3-carboxylic acid]",4.70 to 6.00
2,"Cc1oc2ccc(OCc3ccoc3)cc2c1C(=O)O [cpd 001, 5-(furan-3-ylmethoxy)-2-methylbenzofuran-3-carboxylic acid]",4.70 to 6.00
3,Cc1oc2ccc(OCc3cccnc3C(F)(F)F)cc2c1C(=O)O,4.70 to 6.00
4,"Cc1oc2ccc(OCc3cccnc3C(F)(F)F)cc2c1C(=O)NCC1(N)COC1 [cpd 189, N-((3-aminooxetan-3-yl)methyl)-2-methyl-5-((2-(trifluoromethyl)pyridin-3-yl)methoxy)-benzofuran-3-carboxamide]",4.70 to 6.00
5,"Cc1oc2ccc(OCc3nccc4ccccc34)cc2c1C(=O)NC1CCN(C)CC1 [cpd 059, 5-(isoquinolin-1-ylmethoxy)-2-methyl-N-(1-methylpiperidin-4-yl)benzofuran-3-carboxamide]",4.70 to 6.00
6,"Cc1oc2ccc(OCc3cccnc3C(F)(F)F)cc2c1C(=O)n1cc(N)cn1 [cpd 181, (4-amino-1H-pyrazol-1-yl)(2-methyl-5-((2-(trifluoromethyl)pyridin-3-yl)methoxy)benzofuran-3-yl)methanone]",4.70 to 6.00
7,"Cc1oc2ccc(OCc3cccnc3C(F)(F)F)cc2c1C(=O)NC1CN(C)CCC1(F)F (single isomer, unassigned) [131 - En 1]",≥ 6.00
8,"Cc1oc2ccc(OCc3cccnc3C(F)(F)F)cc2c1C(=O)n1ccc(N)n1 [cpd 178, (3-amino-1H-pyrazol-1-yl)(2-methyl-5-((2-(trifluoromethyl)pyridin-3-yl)methoxy)benzofuran-3-yl)methanone]",4.70 to 6.00
9,"Cc1oc2cc(Cl)c(OCc3cccnc3C(F)(F)F)cc2c1C(=O)NC1CCNCC1(F)F (single isomer, unassigned) [165 - En 2]",4.70 to 6.00
10,"Cc1oc2ccc(OCc3nccs3)cc2c1C(=O)NC1CCN(C(=O)OC(C)(C)C)CC1(F)F (stereo not shown) [cpd 087, tert-butyl 3,3-difluoro-4-(2-methyl-5-(thiazol-2-ylmethoxy)benzofuran-3-carboxamido)piperidine-1-carboxylate]",4.70 to 6.00
11,"Cc1ncsc1COc1cc(F)c2oc(C)c(C(=O)NC3(CO)CCOCC3)c2c1 [compound 122, 7-fluoro-N-(4-(hydroxymethyl)tetrahydro-2H-pyran-4-yl)-2-methyl-5-((4-methylthiazol-5-yl)-methoxy)benzofuran-3-carboxamide]",4.70 to 6.00

# Same assay, conditions: PS (50 μM) stimulated, cpds. 400-499
row,SMILES,pIC50
1,"Cc1ncc(COc2ccc3oc(C)c(C(=O)NC(CO)CN4CCOCC4)c3c2)s1 (single isomer, unassigned) [487 - En 1]",4.70 to 6.00
2,"Cc1oc2ccc(OCc3cccn(C)c3=O)cc2c1C(=O)NC1CCN(CCO)C1=O (stereo not shown) [cpd 405, N-(1-(2-hydroxyethyl)-2-oxopyrrolidin-3-yl)-2-methyl-5-((1-methyl-2-oxo-1,2-dihydropyridin-3-yl)methoxy)benzofuran-3-carboxamide]",≤ 4.70
3,"Cc1oc2ccc(OCc3nccn3C)cc2c1C(=O)NC(CO)C(N)=O (single isomer, unassigned) [451 - En 2]",4.70 to 6.00
4,"Cc1oc2ccc(OCc3nccn3C)cc2c1C(=O)NC(CO)C(N)=O (single isomer, unassigned) [451 - En 1]",≥ 6.00
5,"Cc1nc(C)c(COc2ccc3oc(C)c(C(=O)NC(CO)C(N)=O)c3c2)s1 (single isomer, unassigned) [458 - En 1]",≥ 6.00
6,"Cc1ncc(COc2ccc3oc(C)c(C(=O)NC(CN(C)C4CC4)C(N)=O)c3c2)s1 (single isomer, unassigned) [445 - En 1]",≥ 6.00
7,"Cc1ncc(COc2ccc3oc(C)c(C(=O)N[C@@H](CO)c4nc5ccccc5[nH]4)c3c2)s1 [401 - En 1, (R)-N-(1-(1H-benzo[d]imidazol-2-yl)-2-hydroxyethyl)-2-methyl-5-((2-methylthiazol-5-yl)methoxy)benzofuran-3-carboxamide]",≥ 6.00
8,"Cc1oc2ccc(OCc3cccnc3O)cc2c1C(=O)NC1CCN(CCO)C1=O (single isomer, unassigned) [408 - En 1]",≥ 6.00
9,"Cc1oc2ccc(OCc3cccnc3C(F)F)cc2c1C(=O)NC(CO)C(N)=O (single isomer, unassigned) [457 - En 1]",≥ 6.00
10,"Cc1oc2ccc(OCc3cccnc3O)cc2c1C(=O)NC(CO)C(N)=O (single isomer, unassigned) [459 - En 1]",≥ 6.00

# Same assay, conditions: PS (50 μM) stimulated, cpds. 500-599
row,SMILES,pIC50
1,"COc1ncccc1COc1ccc2oc(C)c(C(=O)NC3(CO)CCNC3=O)c2c1 (single isomer, unassigned) [522 - En 1]",≥ 6.00
2,"Cc1ncc(COc2ccc3oc(C)c(C(=O)NC4(C(N)=O)CCOC4)c3c2)s1 (single isomer, unassigned) [592 - En 1]",≥ 6.00
3,"Cc1oc2ccc(OCc3cccnc3O)cc2c1C(=O)NC1(CO)CCNC1=O (single isomer, unassigned) [521 - En 2]",4.70 to 6.00
4,"Cc1oc2ccc(OCc3ccccn3)cc2c1C(=O)NC1(C(N)=O)CCOC1 (single isomer, unassigned) [595 - En 1]",≥ 6.00
5,"Cc1ncsc1COc1ccc2oc(C)c(C(=O)N(C)C3(C(N)=O)COC3)c2c1 [compound 589, N-(3-carbamoyloxetan-3-yl)-N,2-dimethyl-5-((4-methylthiazol-5-yl)methoxy)benzofuran-3-carboxamide]",≥ 6.00
6,"Cc1oc2ccc(OCc3cccnc3O)cc2c1C(=O)NC1(CO)CCNC1=O (single isomer, unassigned) [521 - En 1]",≥ 6.00
7,"Cc1oc2ccc(OCc3cccnc3C(F)(F)F)cc2c1C(=O)NC1(CO)CCCNC1=O (single isomer, unassigned) [510 - En 1]",≥ 6.00
8,"Cc1oc2ccc(OCc3cccc(O)n3)cc2c1C(=O)NC1CCNCC1(F)F (single isomer, unassigned) [569 - En 1, N-(3,3-difluoropiperidin-4-yl)-2-methyl-5-((6-oxo-1,6-dihydropyridin-2-yl)methoxy)benzofuran-3-carboxamide]",4.70 to 6.00

# Same assay, conditions: PS (50 μM) stimulated, cpds. 600-666
row,SMILES,pIC50
1,"Cc1coc(COc2ccc3oc(C)c(C(=O)NC4(CO)CCOCC4)c3c2)n1 [cpd 616, N-(4-(hydroxymethyl)tetrahydro-2H-pyran-4-yl)-2-methyl-5-((4-methyloxazol-2-yl)methoxy)benzofuran-3-carboxamide]",4.70 to 6.00
2,"Cc1oc2ccc(OCc3ncn(C)n3)cc2c1C(=O)NC1(CO)CCOCC1 [cpd 606, N-(4-(hydroxymethyl)tetrahydro-2H-pyran-4-yl)-2-methyl-5-((1-methyl-1H-1,2,4-triazol-3-yl)methoxy)benzofuran-3-carboxamide]",4.70 to 6.00
3,"Cc1csc(COc2ccc3oc(C)c(C(=O)NC4(CO)CCOCC4)c3c2)n1 [cpd 617, N-(4-(hydroxymethyl)tetrahydro-2H-pyran-4-yl)-2-methyl-5-((4-methylthiazol-2-yl)methoxy)benzofuran-3-carboxamide]",4.70 to 6.00
4,Cc1oc2ccc(OCc3nccn3C)cc2c1C(=O)NC1COCC1O (stereo not shown) [653 - En 1],4.70 to 6.00
5,"Cc1ccc(COc2ccc3oc(C)c(C(=O)NC4(CO)CCOCC4)c3c2)cn1 [cpd 622, N-(4-(hydroxymethyl)tetrahydro-2H-pyran-4-yl)-2-methyl-5-((6-methylpyridin-3-yl)methoxy)benzofuran-3-carboxamide]",4.70 to 6.00
6,"Cc1ncsc1COc1ccc2oc(C)c(C(=O)NC3(CO)CCOCC3)c2c1C [cpd 603, N-(4-(hydroxymethyl)tetrahydro-2H-pyran-4-yl)-2,4-dimethyl-5-((4-methylthiazol-5-yl)methoxy)benzofuran-3-carboxamide]",4.70 to 6.00

# Same assay, conditions: PS (50 μM) stimulated, cpds. 667-751
row,SMILES,pIC50
1,Cc1cc(COc2ccc3oc(C)c(C(=O)N[C@@H](CO)C(N)=O)c3c2)on1 [cpd 674],≥ 6.00
2,"Cc1oc2ccc(OCc3ccnn3C)cc2c1C(=O)NC1(CO)CCNC1=O (single isomer, unassigned) [733 - En 1]",≥ 6.00
3,"Cc1oc2ccc(OCc3cccnc3C(F)F)cc2c1C(=O)NC1(CO)CCCNC1=O (single isomer, unassigned) [737 - En 1]",≥ 6.00
4,"Cc1oc2ccc(OCc3ccnn3CC(F)F)cc2c1C(=O)NC1(C(N)=O)CCOC1 (single isomer, unassigned) [740 - En 1]",≥ 6.00
